Activity calls are given as the source filed them.
Experiments:
[1] = biological target: T1, Ubiquitin-conjugating enzyme E2 N (Homo sapiens, UniProt P61088); format: functional;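 further: Dose-response confirmation in a TR-FRET assay detecting UBC13-driven polyubiquitin chain formation, inhibition measured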
T1 sequence (P61088 whole entry): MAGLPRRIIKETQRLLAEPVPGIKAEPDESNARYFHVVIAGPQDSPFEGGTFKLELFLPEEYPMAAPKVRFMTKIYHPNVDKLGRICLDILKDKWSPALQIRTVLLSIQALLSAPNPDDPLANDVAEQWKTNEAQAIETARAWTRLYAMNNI

Aminopeptidase N = biological target: T2, Aminopeptidase N (Plasmodium falciparum FcB1/Columbia, UniProt O96935); assay: P. falciparum M1AAP inhibitors, biochemical, fluorogenic H-Leu-NHMec substrate, 1536-well (AID 1445); design: species or system Plasmodium falciparum 3D7, 3D7
T2 sequence (O96935 whole entry): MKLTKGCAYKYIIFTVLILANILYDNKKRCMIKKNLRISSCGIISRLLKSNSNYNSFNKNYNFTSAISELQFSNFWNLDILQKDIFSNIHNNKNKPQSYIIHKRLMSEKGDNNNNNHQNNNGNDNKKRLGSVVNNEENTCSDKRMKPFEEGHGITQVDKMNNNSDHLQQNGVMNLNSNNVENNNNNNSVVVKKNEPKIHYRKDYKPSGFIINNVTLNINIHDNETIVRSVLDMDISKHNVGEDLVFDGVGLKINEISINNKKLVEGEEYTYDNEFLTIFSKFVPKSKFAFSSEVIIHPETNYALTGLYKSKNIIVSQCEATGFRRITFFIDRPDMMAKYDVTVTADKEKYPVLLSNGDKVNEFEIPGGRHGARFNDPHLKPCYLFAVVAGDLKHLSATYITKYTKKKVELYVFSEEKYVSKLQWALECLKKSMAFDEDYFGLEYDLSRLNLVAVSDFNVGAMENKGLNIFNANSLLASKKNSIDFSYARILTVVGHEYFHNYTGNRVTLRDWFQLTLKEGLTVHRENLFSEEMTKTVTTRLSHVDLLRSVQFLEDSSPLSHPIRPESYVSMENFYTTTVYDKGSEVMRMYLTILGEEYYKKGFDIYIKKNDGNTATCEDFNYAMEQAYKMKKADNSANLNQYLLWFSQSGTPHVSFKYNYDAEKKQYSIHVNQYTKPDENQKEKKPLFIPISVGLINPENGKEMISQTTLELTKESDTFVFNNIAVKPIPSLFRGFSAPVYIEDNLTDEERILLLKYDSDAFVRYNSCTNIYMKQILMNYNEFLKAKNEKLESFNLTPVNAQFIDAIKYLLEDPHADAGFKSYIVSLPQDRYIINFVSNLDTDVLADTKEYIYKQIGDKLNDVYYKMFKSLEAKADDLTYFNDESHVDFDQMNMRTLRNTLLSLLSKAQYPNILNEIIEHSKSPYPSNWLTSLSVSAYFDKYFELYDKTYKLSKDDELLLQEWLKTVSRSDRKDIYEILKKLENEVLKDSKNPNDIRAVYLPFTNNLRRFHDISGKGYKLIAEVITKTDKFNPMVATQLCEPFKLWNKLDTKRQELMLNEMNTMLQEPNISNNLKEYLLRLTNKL

Cytochrome P450 2D6 = Cytochrome P450 2D6 (Homo sapiens, UniProt P10635);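 further: CYP2D6 member of a cytochrome P450 panel assay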
Cytochrome P450 2C9 = Cytochrome P450 2C9 (Homo sapiens, UniProt P11712)
[2] = microbe, parasite or virus in culture; format: functional; settings: Mycobacterium tuberculosis
[3] = C. albicans growth with fluconazole, confirmation, fluorescence, retest (AID 2467); format: functional, cell-based
[4] = NIH-3T3 fibroblast cytotoxicity, dose response, cytotoxicity control, cell-based, fluorescence, Alamar Blue, secondary assay (AID 2327); format: functional;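 further: NIH-3T3 mouse fibroblasts cultured with fluconazole at 8 µg/mL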
[5] = biological target: Peroxisome proliferator-activated receptor gamma/Nuclear receptor coactivator 2 (Homo sapiens, UniProt P37231); assay: (§1) TR-FRET dose response biochemical High Throughput Screening assay for agonists of the steroid receptor coactivator 2 (SRC-2) recruitment by the peroxisome proliferator-activated receptor gamma (PPAR gamma): non-selective agonists. [Related pubchem assays: 1297, 1032 ]; format: functional
[6] = biological target: Peroxisome proliferator-activated receptor gamma/Nuclear receptor coactivator 3 (Homo sapiens, UniProt P37231); assay: as §1, with “3 (SRC-3)” for “2 (SRC-2)”, “1301 (Confirmation screen.), 1048 (Primary screen.)]” for “1297, 1032 ]”; format: functional
[7] = biological target: Peroxisome proliferator-activated receptor gamma/Nuclear receptor coactivator 1 (Homo sapiens, UniProt P37231); assay: as §1, with “1 (SRC-1)” for “2 (SRC-2)”, “assays (depositor defined):AID1300, AID1808, AID504735, AID631]” for “assays: 1297, 1032 ]”; format: protein assay
Cytochrome P450 2C19 = Cytochrome P450 2C19 (Homo sapiens, UniProt P33261); assay: Cytochrome panel assay with activity outcomes. Panel member name: p450-cyp2c19 Compounds with AC50 equal or less than 10 uM are considered active; format: functional; settings: read-out: AC50
H9c2 = assay: cells; format: functional, cell-based; settings: Rattus norvegicus, H9c2, Myocardium;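 further: confirmatory concentration-response retest of ultra-high-throughput screening hits for modulation of myocardial damage; cell death induced by hydrogen peroxide oxidative stress; compound pretreatment for 60 min then peroxide exposure for 2 h; potency is for protecting the cells against peroxide damage rather than for killing them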
[8] = biological target: T3, Polyadenylate-binding protein 1 (Homo sapiens, UniProt P11940); assay: PABP1 MLLE–PAM2 binding inhibitor potency, dose response, biochemical, fluorescence polarization, FITC-PAM2 peptide (AID 602259); format: functional; settings: read-out: IC50_Mean
[9] = biological target: T3, Polyadenylate-binding protein 1; assay: PABP1 MLLE–PAM2 interaction inhibitors, dose response, miRNA deadenylation inhibitor project, biochemical, fluorescence polarization, Cy5-PAM2 peptide, secondary (AID 602260); format: functional; settings: read-out: IC50_Mean
Nonstructural protein 1 = Nonstructural protein 1 (Influenza A virus, UniProt Q194T2); format: functional, Influenza A virus (A/California/07/2009(H1N1))
[10] = growth suppression of beta-catenin-knockout colon cells, dose response, cell-based, HCT116, human colon tumor (AID 1045); format: functional;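 further: HCT116 colon tumor cells with beta catenin knocked out; cells exposed to compound for 60 hours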
[11] = growth suppression of PTEN-null colon cells, dose response, cell-based, HCT116 PTEN knockout (AID 1047); format: functional;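 further: HCT116 colon tumor cells with PTEN knocked out; cells exposed to compound for 60 hours before readout; potency for loss of cell viability measured by luminescence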
[12] = HepG2 cell cytotoxicity, dose response, cytotoxicity control for Shn3 inhibitor project, CellTiter-Glo, cherry-picked (AID 624134); format: functional, cell-based
[13] = control 3'UTR Renilla luciferase suppression, dose response, counter-screen for Shn3 inhibitor project, cell-based, Clone20-Shn3RL, cherry-picked (AID 624133); format: functional
[14] = biological target: T4, DNA repair protein RAD52 homolog (Homo sapiens, UniProt P43351); format: functional, biochemical
T4 sequence (P43351 whole entry): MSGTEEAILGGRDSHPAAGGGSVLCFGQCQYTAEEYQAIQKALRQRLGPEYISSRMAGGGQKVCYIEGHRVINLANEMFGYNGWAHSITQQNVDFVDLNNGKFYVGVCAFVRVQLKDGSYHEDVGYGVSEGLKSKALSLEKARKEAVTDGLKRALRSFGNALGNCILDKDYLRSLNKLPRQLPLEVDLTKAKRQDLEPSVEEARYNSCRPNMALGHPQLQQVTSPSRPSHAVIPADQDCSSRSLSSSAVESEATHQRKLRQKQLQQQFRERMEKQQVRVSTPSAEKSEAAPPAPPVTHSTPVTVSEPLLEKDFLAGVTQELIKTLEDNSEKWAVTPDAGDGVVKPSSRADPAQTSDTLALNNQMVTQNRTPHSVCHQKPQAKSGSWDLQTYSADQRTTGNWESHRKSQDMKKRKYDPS

[15] = Shn3 3'UTR reporter inhibitors, dose response, cell-based, Clone20 osteoblasts, firefly luciferase, cherry-picked (AID 624132); format: functional;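 further: firefly luciferase luminescence from reporter carrying the Shn3 3'UTR in osteoblasts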
[16] = inhibitors of HIV Env-driven cell fusion, dose response, cherry-pick (AID 652057); format: functional, cell-based
[17] = ZM109 Env clade C HIV-1 fusion inhibitors, dose response, HeLa effector, CEM target cells, luciferase, cherry-pick (AID 652058); format: functional, cell-based
[18] = inhibitors of clade B AD8 Env fusion, dose response, cell-based, cherry-pick (AID 652062); format: functional;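 further: luciferase signal from cell-cell fusion driven by HIV-1 clade B AD8 Env; potency is for inhibitors of fusion seen as a drop in luminescence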
Paired box protein Pax-8 = Paired box protein Pax-8 (Homo sapiens, UniProt Q06710); assay: inhibitors of PAX8-driven TPO luciferase reporter, dose response, RMG-I cells, cherry-pick (AID 687027); format: functional, cell-based;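 further: luciferase reporter driven by Pax8 target thyroperoxidase promoter measured by SteadyGlo luminescence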

Chain of Nonstructural protein 1 (Q194T2 whole entry): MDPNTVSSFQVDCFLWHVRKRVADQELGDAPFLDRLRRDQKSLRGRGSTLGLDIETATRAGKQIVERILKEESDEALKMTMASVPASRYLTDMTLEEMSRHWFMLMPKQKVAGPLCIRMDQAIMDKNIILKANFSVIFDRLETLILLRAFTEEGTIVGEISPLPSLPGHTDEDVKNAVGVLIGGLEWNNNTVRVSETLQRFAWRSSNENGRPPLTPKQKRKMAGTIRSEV
Chain of Peroxisome proliferator-activated receptor gamma/Nuclear receptor coactivator 1 (P37231 whole entry): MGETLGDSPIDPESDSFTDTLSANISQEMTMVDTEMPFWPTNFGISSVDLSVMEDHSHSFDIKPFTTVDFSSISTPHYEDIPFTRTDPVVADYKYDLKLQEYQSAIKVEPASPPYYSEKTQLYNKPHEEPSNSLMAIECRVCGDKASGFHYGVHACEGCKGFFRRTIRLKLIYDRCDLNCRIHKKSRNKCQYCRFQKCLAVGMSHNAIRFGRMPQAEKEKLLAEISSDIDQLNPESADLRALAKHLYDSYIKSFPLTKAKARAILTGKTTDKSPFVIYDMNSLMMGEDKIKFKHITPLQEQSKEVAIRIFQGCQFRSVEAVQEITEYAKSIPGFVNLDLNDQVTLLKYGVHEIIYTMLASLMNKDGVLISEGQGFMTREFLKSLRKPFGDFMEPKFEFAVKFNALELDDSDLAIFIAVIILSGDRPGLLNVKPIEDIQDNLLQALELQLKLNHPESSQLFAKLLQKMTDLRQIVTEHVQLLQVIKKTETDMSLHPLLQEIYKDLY
Chain of Peroxisome proliferator-activated receptor gamma/Nuclear receptor coactivator 1 (Q15788 whole entry, further chain): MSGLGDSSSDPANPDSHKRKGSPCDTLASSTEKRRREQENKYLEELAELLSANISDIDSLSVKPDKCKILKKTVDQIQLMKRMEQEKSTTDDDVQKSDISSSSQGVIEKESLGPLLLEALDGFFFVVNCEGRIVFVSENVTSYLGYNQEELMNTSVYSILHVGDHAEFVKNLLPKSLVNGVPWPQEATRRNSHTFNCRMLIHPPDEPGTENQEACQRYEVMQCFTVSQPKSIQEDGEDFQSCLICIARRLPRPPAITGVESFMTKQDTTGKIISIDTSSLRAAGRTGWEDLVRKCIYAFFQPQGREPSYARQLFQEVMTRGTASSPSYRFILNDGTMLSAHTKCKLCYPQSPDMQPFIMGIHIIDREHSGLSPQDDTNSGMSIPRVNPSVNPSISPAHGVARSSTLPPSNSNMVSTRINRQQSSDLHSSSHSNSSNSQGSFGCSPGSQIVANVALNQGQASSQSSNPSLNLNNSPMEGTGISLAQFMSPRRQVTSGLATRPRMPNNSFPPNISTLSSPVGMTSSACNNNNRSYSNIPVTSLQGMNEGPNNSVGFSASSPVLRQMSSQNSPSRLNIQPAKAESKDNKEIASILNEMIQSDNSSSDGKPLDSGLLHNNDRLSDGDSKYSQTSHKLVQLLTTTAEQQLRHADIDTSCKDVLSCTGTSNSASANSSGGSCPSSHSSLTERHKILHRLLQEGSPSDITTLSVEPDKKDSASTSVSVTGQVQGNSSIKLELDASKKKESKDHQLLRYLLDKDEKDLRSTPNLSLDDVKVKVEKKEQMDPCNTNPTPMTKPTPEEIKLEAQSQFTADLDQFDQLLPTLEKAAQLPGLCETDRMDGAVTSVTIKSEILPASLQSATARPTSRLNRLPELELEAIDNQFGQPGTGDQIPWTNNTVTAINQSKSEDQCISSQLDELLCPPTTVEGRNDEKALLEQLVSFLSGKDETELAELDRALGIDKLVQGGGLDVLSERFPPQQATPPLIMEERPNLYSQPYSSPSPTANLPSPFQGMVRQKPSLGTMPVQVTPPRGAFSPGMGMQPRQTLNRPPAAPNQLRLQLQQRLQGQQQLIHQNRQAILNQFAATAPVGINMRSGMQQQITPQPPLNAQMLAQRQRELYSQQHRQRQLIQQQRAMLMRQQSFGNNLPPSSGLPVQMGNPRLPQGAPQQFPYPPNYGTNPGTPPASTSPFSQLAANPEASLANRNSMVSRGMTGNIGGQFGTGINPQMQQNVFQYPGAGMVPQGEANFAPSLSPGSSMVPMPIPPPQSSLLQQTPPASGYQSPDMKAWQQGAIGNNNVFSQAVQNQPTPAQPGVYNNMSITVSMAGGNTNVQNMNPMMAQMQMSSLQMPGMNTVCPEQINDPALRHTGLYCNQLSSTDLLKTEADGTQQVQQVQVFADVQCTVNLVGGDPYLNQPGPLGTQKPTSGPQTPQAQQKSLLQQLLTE
Chain of Peroxisome proliferator-activated receptor gamma/Nuclear receptor coactivator 2 (P37231 whole entry): as the sequence (P37231 whole entry) above
Chain of Peroxisome proliferator-activated receptor gamma/Nuclear receptor coactivator 2 (Q15596 whole entry, further chain): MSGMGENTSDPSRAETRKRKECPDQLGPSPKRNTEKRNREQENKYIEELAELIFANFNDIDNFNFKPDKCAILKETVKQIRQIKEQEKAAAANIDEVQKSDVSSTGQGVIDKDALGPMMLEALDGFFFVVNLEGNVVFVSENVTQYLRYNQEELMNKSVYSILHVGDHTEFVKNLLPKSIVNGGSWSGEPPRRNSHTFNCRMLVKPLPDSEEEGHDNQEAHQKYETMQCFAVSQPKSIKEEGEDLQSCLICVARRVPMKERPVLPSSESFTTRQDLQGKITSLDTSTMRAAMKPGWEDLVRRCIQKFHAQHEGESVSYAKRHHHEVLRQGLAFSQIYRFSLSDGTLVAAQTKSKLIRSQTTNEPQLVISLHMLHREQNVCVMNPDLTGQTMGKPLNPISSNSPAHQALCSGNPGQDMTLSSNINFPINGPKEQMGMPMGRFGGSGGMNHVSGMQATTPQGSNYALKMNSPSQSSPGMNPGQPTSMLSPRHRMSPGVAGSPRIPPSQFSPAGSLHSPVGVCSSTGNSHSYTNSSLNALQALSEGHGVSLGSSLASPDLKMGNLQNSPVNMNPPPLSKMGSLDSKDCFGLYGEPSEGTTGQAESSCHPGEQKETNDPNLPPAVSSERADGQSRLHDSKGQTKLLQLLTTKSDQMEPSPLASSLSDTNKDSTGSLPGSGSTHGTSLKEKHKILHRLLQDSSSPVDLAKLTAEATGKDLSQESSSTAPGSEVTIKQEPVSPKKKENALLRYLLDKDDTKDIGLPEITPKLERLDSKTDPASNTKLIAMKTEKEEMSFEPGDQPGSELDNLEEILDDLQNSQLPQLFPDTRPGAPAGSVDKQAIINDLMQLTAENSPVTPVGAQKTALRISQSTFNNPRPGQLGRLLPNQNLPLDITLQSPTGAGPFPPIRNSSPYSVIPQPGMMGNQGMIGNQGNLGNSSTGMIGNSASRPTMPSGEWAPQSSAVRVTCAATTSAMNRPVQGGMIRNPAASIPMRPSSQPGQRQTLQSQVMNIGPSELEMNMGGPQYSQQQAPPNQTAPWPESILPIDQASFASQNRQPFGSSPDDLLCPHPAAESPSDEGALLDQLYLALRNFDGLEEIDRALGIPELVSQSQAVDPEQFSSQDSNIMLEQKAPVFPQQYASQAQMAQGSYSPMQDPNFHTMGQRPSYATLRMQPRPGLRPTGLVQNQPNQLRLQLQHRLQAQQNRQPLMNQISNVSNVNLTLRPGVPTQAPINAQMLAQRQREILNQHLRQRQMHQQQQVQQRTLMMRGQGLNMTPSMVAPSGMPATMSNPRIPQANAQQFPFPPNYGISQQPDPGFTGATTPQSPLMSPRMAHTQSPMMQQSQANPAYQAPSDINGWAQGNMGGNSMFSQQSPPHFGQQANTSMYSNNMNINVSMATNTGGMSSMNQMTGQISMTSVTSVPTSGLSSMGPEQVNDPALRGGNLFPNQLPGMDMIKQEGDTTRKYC
Chain of Cytochrome P450 2C9 (P11712 whole entry): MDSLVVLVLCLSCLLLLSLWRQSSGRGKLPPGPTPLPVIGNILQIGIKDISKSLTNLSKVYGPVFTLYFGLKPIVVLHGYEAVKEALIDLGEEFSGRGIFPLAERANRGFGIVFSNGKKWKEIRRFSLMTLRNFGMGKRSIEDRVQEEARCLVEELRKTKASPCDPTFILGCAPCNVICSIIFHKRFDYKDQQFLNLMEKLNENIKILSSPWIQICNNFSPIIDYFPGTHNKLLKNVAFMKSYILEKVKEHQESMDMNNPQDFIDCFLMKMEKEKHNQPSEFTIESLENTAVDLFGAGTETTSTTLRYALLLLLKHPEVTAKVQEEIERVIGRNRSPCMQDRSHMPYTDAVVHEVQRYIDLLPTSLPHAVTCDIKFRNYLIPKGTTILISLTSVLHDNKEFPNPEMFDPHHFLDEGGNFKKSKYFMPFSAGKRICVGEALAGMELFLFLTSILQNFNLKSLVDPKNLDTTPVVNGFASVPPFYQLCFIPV

Structure (SMILES): C#CCOCCOCCOCCNc1nc(N2CCOCC2)nc(N2CCN(C(=O)CCCCCCCCCCNC(=O)[C@@H]([C@H](C)CC)n3cc(CCCCCN)nn3)CC2)n1
- IC50 [1]: > 20 µM (inactive)

Structure (SMILES): Cc1nnc(NC(=O)c2ccc3ccccc3n2)s1
- IC50 (Aminopeptidase N): 36.8 µM (active)

Structure (SMILES): Cc1ccc(OCCCn2c(=O)sc3ccccc32)cc1
- AC50 (Cytochrome P450 2D6): 14.1 µM (inconclusive)
- AC50 (Cytochrome P450 2C9): inconclusive

Structure (SMILES): CC(=O)Nc1ccc(S(=O)(=O)Nc2nc3ccccc3nc2Nc2ccccc2)cc1
- IC50 (Aminopeptidase N): 94.9 µM (active)

Structure (SMILES): Cc1c(Cc2ccccc2)c(=O)oc2c(CN(C)C)c(O)c(Cl)cc12
- IC50 (Aminopeptidase N): 33 µM (active)

Structure (SMILES): C[C@@H]1CCCCCCCCC(=O)OCCN[C@H](C)CCCCCCCCC(=O)OCCN[C@H](C)CCCCCCCCC(=O)OCCN1
- IC50 [1]: > 20 µM (inactive)
- CC50 [2]: 26.5 µM (active)

Structure (SMILES): CC(C)c1ccc(OCC(=O)Nc2cccc(C(=O)Nc3ccccc3C(=O)O)c2)cc1
- EC50 [3]: 1.9 µM (active)
- EC50 [4]: 16.9 µM (inconclusive)

Structure (SMILES): COc1ccc(CNC(=O)CSc2cc(=O)n(C)c3ccccc23)cc1
- EC50 [5]: > 79.4 µM (not active)
- EC50 [6]: > 79.4 µM (not active)
- EC50 [7]: > 79.4 µM (inactive)

Structure (SMILES): O=C(Nc1ccc(N=Nc2ccccc2)cc1)c1ccc(Cl)cc1Cl
- AC50 (Cytochrome P450 2C19): 39.8 µM (inconclusive)
- AC50 (Cytochrome P450 2C9): inconclusive

Structure (SMILES): CCOc1ccc(C(C(=O)NCC2CCCO2)N(C(=O)c2snc(C(N)=O)c2N)c2ccccc2F)cc1 (stereo unspecified)
- IC50 [1]: > 20 µM (inactive)
- IC50 (H9c2): > 79 µM (inactive)

Structure (SMILES): CC(=O)Oc1ccc2c(C)c(CC(C)O)c(=O)oc2c1 (stereo unspecified)
- IC50 (Aminopeptidase N): 62.4 µM (active)

Structure (SMILES): CCN(CC)S(=O)(=O)c1ccc(C(=O)NCc2ccc3c(c2)cc(C)n3C)cc1
- EC50 [5]: 6.71 µM (active)
- IC50 [8]: > 66 µM (inactive)
- IC50 [9]: > 66 µM (inactive)
- EC50 [6]: 15.3 µM (not active)
- EC50 [7]: 6.6 µM (active)

Structure (SMILES): CCSC1=NC(=O)/C(=C2/C=Cc3ccccc3N2CC)S1
- IC50 (Nonstructural protein 1): 9.25 µM (active)

Structure (SMILES): COc1ccc(OC)c(-n2c(CN3CCC(C(N)=O)CC3)nc3ccccc3c2=O)c1
- EC50 [3]: 3.29 µM (active)
- EC50 [4]: > 150 µM (inactive)

Structure (SMILES): O=C1Nc2ccccc2S/C1=C/NCc1ccccc1Cl
- IC50 (Aminopeptidase N): 5.63 µM (active)

Structure (SMILES): CC1=CC=CN2CC(O)CN=C12.Cl (stereo unspecified)
- AC50 (Cytochrome P450 2C9): inconclusive

Structure (SMILES): O=C(COc1cc(F)ccc1[N+](=O)[O-])Nc1ccc(N2CCCCC2)cc1
- IC50 (Nonstructural protein 1): 21.3 µM (active)

Structure (SMILES): COCCCn1c(=S)[nH]c2sc3c(c2c1=O)CCCS3
- EC50 [5]: 26.7 µM (not active)
- EC50 [6]: > 79.4 µM (not active)
- EC50 [7]: 66.8 µM (inactive)

Structure (SMILES): O=C(C[n+]1ccccc1)NN=Cc1cc(Br)ccc1O
- IC50 (Nonstructural protein 1): 2.96 µM (active)

Structure (SMILES): O=C(Cc1ccccc1)Nc1nnc(-c2ccco2)s1
- EC50 [5]: > 79.4 µM (not active)
- EC50 [6]: > 79.4 µM (not active)
- EC50 [7]: > 79.4 µM (inactive)

Structure (SMILES): CCCOC(=O)/C(=C\c1ccc([N+](=O)[O-])o1)NC(=O)c1ccccc1
- EC50 [3]: 0.174 µM (active)
- EC50 [4]: > 160 µM (inactive)
- CC50 [2]: 35.1 µM (active)

Structure (SMILES): O=C(CN1C(=O)C2C3CC(C(Br)C3Br)C2C1=O)Nc1ccc(C(=O)O)cc1 (stereo unspecified)
- IC50 (Aminopeptidase N): 62.5 µM (active)

Structure (SMILES): CN1CCN(Cc2nc3ccccc3c(=O)n2Cc2nc(-c3ccc([N+](=O)[O-])cc3)cs2)CC1
- EC50 [10]: 7.87 µM (active)
- IC50 [1]: > 20 µM (inactive)
- EC50 [11]: 4.88 µM (active)

Structure (SMILES): COc1ccc(C2=NN(C(=N)S)C(c3ccccc3)C2)cc1 (stereo unspecified)
- EC50 [5]: 8.07 µM (active)
- EC50 [6]: > 79.4 µM (not active)
- EC50 [7]: 8.24 µM (active)

Structure (SMILES): CCCS(=O)(=O)Nc1ccc(Nc2c3ccccc3nc3ccccc23)c(OC)c1
- AC50 [12]: 20.1 µM (active)
- AC50 [13]: 1.03 µM (active)
- AC50 [14]: 3.15 µM (active)
- AC50 [15]: 3.39 µM (active)

Structure (SMILES): CCN(CC)CCNC(=O)c1nn(-c2ccc(Cl)cc2)c2c1CCc1cc(OC)ccc1-2
- AC50 [14]: 16.8 µM (active)

Structure (SMILES): C/N=C(\C[N+](=O)[O-])NCCSCc1ccc(CN(C)C)o1
- AC50 [14]: 12.5 µM (active)

Structure (SMILES): CC(C)CC#Cc1ccc2c(c1)O[C@H](CN(C)S(=O)(=O)c1ccc(F)cc1)[C@H](C)CN([C@@H](C)CO)S2(=O)=O
- AC50 [16]: 26.6 µM (active)
- AC50 [17]: 20.8 µM (active)
- AC50 [18]: 23.7 µM (active)
- AC50 (Paired box protein Pax-8): 9.6 µM (active)

Structure (SMILES): CC(C)NC(=O)Nc1ccc2c(c1)CC(=O)N([C@H](C)CO)C[C@H](C)[C@H](CN(C)S(=O)(=O)c1ccccc1)O2
- AC50 [16]: 8.61 µM (active)
- AC50 [17]: 10.7 µM (active)
- AC50 [18]: 35.9 µM (active)

Structure (SMILES): O=C(N/N=C/c1ccc(Cl)cc1Cl)Nc1ccccc1
- EC50 [3]: > 38 µM (not active)
- EC50 [4]: > 160 µM (inactive)

Reference: ChEMBL document CHEMBL1201862, “PubChem BioAssay data set” (2004)
